In ChEMBL document CHEMBL3244278, “Cerebrovasodilatation through selective inhibition of the enzyme carbonic anhydrase. 1. Substituted benzenedisulfonamides” (J Med Chem, 1978):
Activity calls are given as the source filed them. The rule behind the calls is not given here.

What was measured:
Mus musculus [1] = test: Anticonvulsant activity in mouse assessed as protection against electroshock-induced maximal seizure effect up to 100 mg/kg, po administered via gavage 2 hrs prior to electroshock stimulation; format: functional, organism-based; design: dose 100 mg/kg
Rattus norvegicus = test: Induction of diuretic activity in po dosed rat assessed as increase in urine output after 4 hrs; format: organism-based
Mus musculus [2] = test: Anticonvulsant activity in po dosed mouse assessed as protection against electroshock-induced maximal seizure effect administered via gavage 2 hrs prior to electroshock stimulation; format: functional; settings: for ED50: Mus musculus, po
[3] = Octanol-water partition coefficient, log P of the compound; format: physicochemical
[4] = Elimination half life in iv dosed dog plasma; format: ADME, organism-based, Canis lupus familiaris; settings: read-out: beta t1/2 (converted)
[5] = Protein binding in plasma (unknown origin); format: ADME, cell-free; settings: unidentified, read-out: PPB (converted)
[6] = Dissociation constant, pKa of the compound; format: physicochemical

SMILES | Activity (Mus musculus [1]) | other results
COC1(C)CCN(S(=O)(=O)c2ccc(S(N)(=O)=O)cc2)CC1 | inactive | 
CC(=O)C1CCN(S(=O)(=O)c2ccc(S(N)(=O)=O)cc2)CC1 | inactive | 
CC(=O)Nc1nnc(S(N)(=O)=O)s1 [ACETAZOLAMIDE] |  | ED50 (Rattus norvegicus): 5 mg/kg; Activity (Mus musculus [2]): 36 mg/kg
NS(=O)(=O)c1ccc(S(=O)(=O)N2CCOCC2)cc1C(F)(F)F | inactive | 
NS(=O)(=O)c1cc(Cl)c(S(=O)(=O)N2CCOCC2)c(Cl)c1 | inactive | 
COC1CCN(S(=O)(=O)c2ccc(S(N)(=O)=O)c(C(F)(F)F)c2)CC1 | inactive | 
COC1CCN(S(=O)(=O)c2cc(C)c(S(N)(=O)=O)c(C)c2)CC1 | inactive | 
COC1CCN(S(=O)(=O)c2c(Cl)cc(S(N)(=O)=O)cc2Cl)CC1 | inactive | 
COC1CCN(S(=O)(=O)c2cc(Cl)c(S(N)(=O)=O)cc2C)CC1 | inactive | 
NS(=O)(=O)c1ccc(S(=O)(=O)N2CCC(O)(c3ccccn3)CC2)cc1 |  | ED50 (Mus musculus [2]): 40 mg/kg
COC1CCN(S(=O)(=O)c2ccc(S(N)(=O)=O)c(Cl)c2)CC1 [UK-12130] |  | logP [3]: 0.62; half-life [4]: 3 h
CN1CN(c2ccccc2)C2(CCN(S(=O)(=O)c3ccc(S(N)(=O)=O)cc3)CC2)C1=O |  | ED50 (Mus musculus [2]): > 40 mg/kg
NS(=O)(=O)c1nnc(NS(=O)(=O)c2ccccc2)s1 [BENZOLAMIDE] |  | fraction unbound [5]: 0.08; pKa [6]: 3.2
NS(=O)(=O)c1ccc(S(=O)(=O)N2CCC3(CC2)NC(=O)NC3=O)cc1Cl | inactive | 
